Assays:
Experiment in all cases: Drug affinity chromatography with c-ponatinib and LC-MS/MS (ponatinib interactome)
Format in all cases: binding
[1] = molecular target: T1, proteins of U2OS cell lysate (Homo sapiens, UniProt P05783); settings: KRT18, Keratin, type I cytoskeletal 18
T1 construct: Proteins enriched by c-ponatinib from U2OS cell lysate; endogenous in cells; host or cells: U2OS cell lysate
Method in brief: (§1)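 Proteins were identified by nano-UPLC–MS/MS after elution with formic acid and trypsin digestion. They were captured from U2OS lysate (2 mg protein per pulldown, NP-40 buffer) on amine-coupled NHS beads during a 2 h incubation at 4 °C.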

[2] = molecular target: T2, proteins of U2OS cell lysate (Homo sapiens, UniProt O14976); settings: GAK, Cyclin-G-associated kinase
T2 construct: Proteins enriched by c-ponatinib from U2OS cell lysate; endogenous in cells; host or cells: U2OS cell lysate
Method in brief: as §1

[3] = molecular target: T3, proteins of U2OS cell lysate (Homo sapiens, UniProt Q14974); settings: KPNB1, Importin subunit beta-1
T3 construct: Proteins enriched by c-ponatinib from U2OS cell lysate; endogenous in cells; host or cells: U2OS cell lysate
Method in brief: as §1

[4] = molecular target: T4, proteins of U2OS cell lysate (Homo sapiens, UniProt Q14680); settings: MELK, Maternal embryonic leucine zipper kinase
T4 construct: Proteins enriched by c-ponatinib from U2OS cell lysate; endogenous in cells; host or cells: U2OS cell lysate
Method in brief: as §1

[5] = molecular target: T5, proteins of U2OS cell lysate (Homo sapiens, UniProt Q9NTJ3); settings: SMC4, Structural maintenance of chromosomes protein 4
T5 construct: Proteins enriched by c-ponatinib from U2OS cell lysate; endogenous in cells; host or cells: U2OS cell lysate
Method in brief: as §1

[6] = molecular target: T6, proteins of U2OS cell lysate (Homo sapiens, UniProt O94921); settings: CDK14, Cyclin-dependent kinase 14
T6 construct: Proteins enriched by c-ponatinib from U2OS cell lysate; endogenous in cells; host or cells: U2OS cell lysate
Method in brief: as §1

[7] = molecular target: T7, proteins of U2OS cell lysate (Homo sapiens, UniProt Q09028); settings: RBBP4;RBBP7, Histone-binding protein RBBP4
T7 construct: Proteins enriched by c-ponatinib from U2OS cell lysate; endogenous in cells; host or cells: U2OS cell lysate
Method in brief: as §1

[8] = molecular target: T8, proteins of U2OS cell lysate (Homo sapiens, UniProt P29692); settings: EEF1D, Elongation factor 1-delta
T8 construct: Proteins enriched by c-ponatinib from U2OS cell lysate; endogenous in cells; host or cells: U2OS cell lysate
Method in brief: as §1

[9] = molecular target: T9, proteins of U2OS cell lysate (Homo sapiens, UniProt P55072); settings: VCP, Transitional endoplasmic reticulum ATPase
T9 construct: Proteins enriched by c-ponatinib from U2OS cell lysate; endogenous in cells; host or cells: U2OS cell lysate
Method in brief: as §1

[10] = molecular target: T10, proteins of U2OS cell lysate (Homo sapiens, UniProt P62714); settings: PPP2CB, Serine/threonine-protein phosphatase 2A catalytic subunit beta isoform
T10 construct: Proteins enriched by c-ponatinib from U2OS cell lysate; endogenous in cells; host or cells: U2OS cell lysate
Method in brief: as §1

[11] = molecular target: T11, proteins of U2OS cell lysate (Homo sapiens, UniProt P05388); settings: RPLP0;RPLP0P6, 60S acidic ribosomal protein P0
T11 construct: Proteins enriched by c-ponatinib from U2OS cell lysate; endogenous in cells; host or cells: U2OS cell lysate
Method in brief: as §1

[12] = molecular target: T12, proteins of U2OS cell lysate (Homo sapiens, UniProt P11441); settings: UBL4A, Ubiquitin-like protein 4A
T12 construct: Proteins enriched by c-ponatinib from U2OS cell lysate; endogenous in cells; host or cells: U2OS cell lysate
Method in brief: as §1

[13] = molecular target: T13, proteins of U2OS cell lysate (Homo sapiens, UniProt Q8WWI1); settings: LMO7, LIM domain only protein 7
T13 construct: Proteins enriched by c-ponatinib from U2OS cell lysate; endogenous in cells; host or cells: U2OS cell lysate
Method in brief: as §1

[14] = molecular target: T14, proteins of U2OS cell lysate (Homo sapiens, UniProt P35579); settings: MYH9, Myosin-9
T14 construct: Proteins enriched by c-ponatinib from U2OS cell lysate; endogenous in cells; host or cells: U2OS cell lysate
Method in brief: as §1

[15] = molecular target: T15, proteins of U2OS cell lysate (Homo sapiens, UniProt P56381); settings: ATP5E;ATP5EP2, ATP synthase subunit epsilon, mitochondrial
T15 construct: Proteins enriched by c-ponatinib from U2OS cell lysate; endogenous in cells; host or cells: U2OS cell lysate
Method in brief: as §1

[16] = molecular target: T16, proteins of U2OS cell lysate (Homo sapiens, UniProt P62081); settings: RPS7, 40S ribosomal protein S7
T16 construct: Proteins enriched by c-ponatinib from U2OS cell lysate; endogenous in cells; host or cells: U2OS cell lysate
Method in brief: as §1

[17] = molecular target: T17, proteins of U2OS cell lysate (Homo sapiens, UniProt O43318); settings: MAP3K7;DKFZp586F0420, Mitogen-activated protein kinase kinase kinase 7
T17 construct: Proteins enriched by c-ponatinib from U2OS cell lysate; endogenous in cells; host or cells: U2OS cell lysate
Method in brief: as §1

[18] = molecular target: T18, proteins of U2OS cell lysate (Homo sapiens, UniProt P07437); settings: TUBB;TUBB2A, Tubulin beta chain
T18 construct: Proteins enriched by c-ponatinib from U2OS cell lysate; endogenous in cells; host or cells: U2OS cell lysate
Method in brief: as §1

[19] = molecular target: T19, proteins of U2OS cell lysate (Homo sapiens, UniProt Q0ZGT2); settings: NEXN, Nexilin
T19 construct: Proteins enriched by c-ponatinib from U2OS cell lysate; endogenous in cells; host or cells: U2OS cell lysate
Method in brief: as §1

T6 sequence (O94921 whole entry): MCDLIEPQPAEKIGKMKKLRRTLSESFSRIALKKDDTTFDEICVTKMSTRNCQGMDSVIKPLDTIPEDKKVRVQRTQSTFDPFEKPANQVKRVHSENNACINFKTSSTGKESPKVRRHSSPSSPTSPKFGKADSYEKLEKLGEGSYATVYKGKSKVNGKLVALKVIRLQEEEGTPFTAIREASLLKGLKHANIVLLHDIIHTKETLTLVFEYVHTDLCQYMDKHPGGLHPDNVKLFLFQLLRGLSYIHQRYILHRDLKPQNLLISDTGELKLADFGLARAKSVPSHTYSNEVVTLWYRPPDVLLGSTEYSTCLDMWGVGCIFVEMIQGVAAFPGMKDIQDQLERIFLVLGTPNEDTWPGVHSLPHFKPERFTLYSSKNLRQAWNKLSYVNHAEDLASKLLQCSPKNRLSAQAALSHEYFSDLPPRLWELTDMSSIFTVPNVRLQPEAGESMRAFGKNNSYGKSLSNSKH
T14 sequence (P35579 whole entry): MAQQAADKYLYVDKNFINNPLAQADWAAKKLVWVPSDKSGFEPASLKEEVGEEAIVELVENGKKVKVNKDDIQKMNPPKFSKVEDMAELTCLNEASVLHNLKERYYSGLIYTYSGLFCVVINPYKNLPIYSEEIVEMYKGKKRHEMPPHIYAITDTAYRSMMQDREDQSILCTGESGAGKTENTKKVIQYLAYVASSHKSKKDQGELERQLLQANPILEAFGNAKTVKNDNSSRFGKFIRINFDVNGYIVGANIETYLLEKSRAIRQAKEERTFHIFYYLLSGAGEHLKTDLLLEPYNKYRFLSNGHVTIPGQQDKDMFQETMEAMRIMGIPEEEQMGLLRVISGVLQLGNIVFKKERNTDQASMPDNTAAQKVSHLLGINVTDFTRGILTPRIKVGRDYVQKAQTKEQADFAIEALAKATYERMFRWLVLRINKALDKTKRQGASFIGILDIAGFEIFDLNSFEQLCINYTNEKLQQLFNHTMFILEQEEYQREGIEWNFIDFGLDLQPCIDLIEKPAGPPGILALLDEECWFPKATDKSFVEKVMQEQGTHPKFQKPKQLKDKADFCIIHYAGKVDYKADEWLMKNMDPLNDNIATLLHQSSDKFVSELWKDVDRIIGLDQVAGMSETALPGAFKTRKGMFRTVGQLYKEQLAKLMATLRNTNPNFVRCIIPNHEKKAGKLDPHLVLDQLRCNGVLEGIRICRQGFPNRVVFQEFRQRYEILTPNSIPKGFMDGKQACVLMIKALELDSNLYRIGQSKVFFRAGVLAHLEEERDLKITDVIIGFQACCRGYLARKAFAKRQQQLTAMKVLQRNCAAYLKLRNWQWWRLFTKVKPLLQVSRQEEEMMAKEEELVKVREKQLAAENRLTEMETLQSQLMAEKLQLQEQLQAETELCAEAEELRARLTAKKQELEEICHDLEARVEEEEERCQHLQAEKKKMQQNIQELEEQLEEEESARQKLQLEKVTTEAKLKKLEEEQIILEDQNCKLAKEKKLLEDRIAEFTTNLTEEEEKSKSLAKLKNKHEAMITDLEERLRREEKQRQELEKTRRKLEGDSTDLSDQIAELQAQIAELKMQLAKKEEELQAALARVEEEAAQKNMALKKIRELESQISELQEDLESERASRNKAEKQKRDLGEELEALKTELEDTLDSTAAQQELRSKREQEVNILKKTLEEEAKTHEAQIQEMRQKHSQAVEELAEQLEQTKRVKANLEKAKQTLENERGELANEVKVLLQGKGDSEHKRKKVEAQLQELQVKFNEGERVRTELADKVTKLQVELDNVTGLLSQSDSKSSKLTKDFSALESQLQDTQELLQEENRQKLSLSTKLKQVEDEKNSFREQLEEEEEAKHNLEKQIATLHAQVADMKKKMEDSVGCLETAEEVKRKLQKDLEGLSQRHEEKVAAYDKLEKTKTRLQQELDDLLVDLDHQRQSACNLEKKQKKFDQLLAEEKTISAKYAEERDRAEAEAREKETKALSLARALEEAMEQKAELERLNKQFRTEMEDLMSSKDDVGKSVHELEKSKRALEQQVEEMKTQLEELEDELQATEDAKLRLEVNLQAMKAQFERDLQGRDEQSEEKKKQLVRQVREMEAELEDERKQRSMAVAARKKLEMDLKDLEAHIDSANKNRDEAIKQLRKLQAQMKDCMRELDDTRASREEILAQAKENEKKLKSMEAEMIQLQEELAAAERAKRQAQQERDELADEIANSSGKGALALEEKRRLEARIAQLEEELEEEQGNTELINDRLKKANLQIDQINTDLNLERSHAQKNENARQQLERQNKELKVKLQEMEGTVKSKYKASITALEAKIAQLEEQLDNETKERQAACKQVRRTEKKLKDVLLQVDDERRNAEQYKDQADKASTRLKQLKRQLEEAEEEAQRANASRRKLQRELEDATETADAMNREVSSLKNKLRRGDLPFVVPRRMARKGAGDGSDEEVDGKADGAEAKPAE
T8 sequence (P29692 whole entry): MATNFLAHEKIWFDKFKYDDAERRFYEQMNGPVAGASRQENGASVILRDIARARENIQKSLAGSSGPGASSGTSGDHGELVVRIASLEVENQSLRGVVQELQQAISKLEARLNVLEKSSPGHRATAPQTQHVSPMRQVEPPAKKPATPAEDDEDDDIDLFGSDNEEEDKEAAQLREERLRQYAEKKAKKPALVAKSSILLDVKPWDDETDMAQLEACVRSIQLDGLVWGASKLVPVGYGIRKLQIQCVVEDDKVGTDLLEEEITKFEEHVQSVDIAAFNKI
T18 sequence (P07437 whole entry): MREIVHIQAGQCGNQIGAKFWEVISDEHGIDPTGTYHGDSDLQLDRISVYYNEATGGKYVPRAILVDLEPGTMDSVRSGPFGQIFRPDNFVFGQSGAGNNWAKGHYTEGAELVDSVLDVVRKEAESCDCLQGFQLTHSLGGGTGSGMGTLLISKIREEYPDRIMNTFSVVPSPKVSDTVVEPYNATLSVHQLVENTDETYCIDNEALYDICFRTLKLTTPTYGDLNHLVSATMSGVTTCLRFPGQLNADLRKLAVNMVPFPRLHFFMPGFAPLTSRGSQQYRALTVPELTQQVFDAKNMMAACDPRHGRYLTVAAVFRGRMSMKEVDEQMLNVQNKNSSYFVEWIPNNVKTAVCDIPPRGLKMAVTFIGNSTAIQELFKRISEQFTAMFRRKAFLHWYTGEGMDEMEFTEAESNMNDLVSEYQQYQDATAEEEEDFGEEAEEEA
T4 sequence (Q14680 whole entry): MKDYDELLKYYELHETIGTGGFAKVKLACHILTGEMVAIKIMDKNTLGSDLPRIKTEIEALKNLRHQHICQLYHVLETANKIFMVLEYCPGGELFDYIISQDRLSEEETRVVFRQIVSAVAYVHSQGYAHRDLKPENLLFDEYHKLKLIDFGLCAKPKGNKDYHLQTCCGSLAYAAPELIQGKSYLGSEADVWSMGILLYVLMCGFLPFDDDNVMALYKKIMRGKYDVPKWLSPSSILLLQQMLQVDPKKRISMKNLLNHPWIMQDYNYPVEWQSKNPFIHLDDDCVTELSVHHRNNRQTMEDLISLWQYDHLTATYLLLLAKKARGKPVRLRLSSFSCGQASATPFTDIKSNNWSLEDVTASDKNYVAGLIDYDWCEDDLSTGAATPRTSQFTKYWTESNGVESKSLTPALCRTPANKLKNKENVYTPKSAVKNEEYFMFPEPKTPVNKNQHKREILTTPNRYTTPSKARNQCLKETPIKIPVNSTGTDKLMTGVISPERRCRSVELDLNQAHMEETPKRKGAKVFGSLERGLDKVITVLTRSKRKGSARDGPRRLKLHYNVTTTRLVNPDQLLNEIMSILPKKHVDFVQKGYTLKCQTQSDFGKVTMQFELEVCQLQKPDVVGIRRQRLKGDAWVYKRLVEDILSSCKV
T19 sequence (Q0ZGT2 whole entry): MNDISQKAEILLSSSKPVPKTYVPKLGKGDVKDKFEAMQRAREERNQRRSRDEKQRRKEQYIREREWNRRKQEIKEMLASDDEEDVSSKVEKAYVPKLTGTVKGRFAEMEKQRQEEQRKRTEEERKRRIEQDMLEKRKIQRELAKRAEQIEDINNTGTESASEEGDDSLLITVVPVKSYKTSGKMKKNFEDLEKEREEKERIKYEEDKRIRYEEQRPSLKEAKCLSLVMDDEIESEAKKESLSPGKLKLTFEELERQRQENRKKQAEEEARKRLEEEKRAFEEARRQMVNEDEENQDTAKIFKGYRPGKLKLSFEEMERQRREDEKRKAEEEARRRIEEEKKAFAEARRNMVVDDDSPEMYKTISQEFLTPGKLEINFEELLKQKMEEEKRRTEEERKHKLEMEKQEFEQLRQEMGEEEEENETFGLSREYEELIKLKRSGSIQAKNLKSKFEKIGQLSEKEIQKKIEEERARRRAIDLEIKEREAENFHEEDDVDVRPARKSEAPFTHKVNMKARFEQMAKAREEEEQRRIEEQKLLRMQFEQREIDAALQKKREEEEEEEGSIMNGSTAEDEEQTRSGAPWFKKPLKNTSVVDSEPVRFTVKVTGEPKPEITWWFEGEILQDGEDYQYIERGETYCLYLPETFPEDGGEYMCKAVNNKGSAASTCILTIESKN
T10 sequence (P62714 whole entry, canonical isoform): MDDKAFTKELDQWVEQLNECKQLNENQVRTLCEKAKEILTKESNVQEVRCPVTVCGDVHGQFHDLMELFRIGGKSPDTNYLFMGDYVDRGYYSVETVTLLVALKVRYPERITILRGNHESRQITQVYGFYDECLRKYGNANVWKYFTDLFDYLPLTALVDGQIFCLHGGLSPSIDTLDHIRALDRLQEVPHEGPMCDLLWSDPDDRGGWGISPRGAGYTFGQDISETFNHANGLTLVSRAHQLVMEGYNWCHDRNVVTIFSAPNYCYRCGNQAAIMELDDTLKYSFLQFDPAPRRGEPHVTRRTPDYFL
T12 sequence (P11441 whole entry): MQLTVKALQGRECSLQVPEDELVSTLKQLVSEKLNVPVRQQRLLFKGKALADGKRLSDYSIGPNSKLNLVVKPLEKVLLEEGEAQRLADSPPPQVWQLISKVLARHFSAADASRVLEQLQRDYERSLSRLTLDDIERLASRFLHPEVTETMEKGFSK
T15 sequence (P56381 whole entry): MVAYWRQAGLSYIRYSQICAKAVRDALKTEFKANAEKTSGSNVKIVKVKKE

How did the “Average LFQ PON_WT” value [1] turn out when `Cc1ccc(C(=O)Nc2ccc(CN3CCN(C)CC3)c(C(F)(F)F)c2)cc1C#Cc1cnc2cccnn12` [PON] was run?
Its value is 23.283.

And the “Average LFQ PON_WT” value [2]?
The value was 23.4188.

And the “Average LFQ PON_WT” value [3]?
Its value is 23.6067.

And the “Average LFQ PON_WT” value [4]?
The value was 24.1941.

And the “Average LFQ PON_WT” value [5]?
The value was 21.2975.

And the “Average LFQ PON_WT” value [6]?
Its value is 25.6287.

And the “Average LFQ PON_WT” value [7]?
The value was 21.1647.

What about the “Average LFQ PON_WT” value [8] of the same compound?
Its value is 24.6531.

What about the “Average LFQ PON_WT” value [9] of the same compound?
The value was 23.9947.

And the “Average LFQ PON_WT” value [10]?
Its value is 21.415.

What about the “Average LFQ PON_WT” value [11] of the same compound?
Its value is 20.5709.

And the “Average LFQ PON_WT” value [12]?
The value was 20.3097.

What about the “Average LFQ PON_WT” value [13] of the same compound?
Its value is 20.1594.

And the “Average LFQ PON_WT” value [14]?
Its value is 25.6681.

And the “Average LFQ PON_WT” value [15]?
Its value is 23.9529.

What about the “Average LFQ PON_WT” value [16] of the same compound?
Its value is 20.8944.

And the “Average LFQ PON_WT” value [17]?
The value was 25.3656.

What about the “Average LFQ PON_WT” value [18] of the same compound?
The value was 24.4278.

What about the “Average LFQ PON_WT” value [19] of the same compound?
The value was 20.2843.

Source: paper PMC6120666 (The EMBO Journal, 2018)
